This is an account of results in patent US5011854A, “Hydroxamic acid derivatives and use thereof in combatting lipoxygenase-mediated diseases” (Kyowa Hakko Kogyo Co. Ltd., priority 1987, dated 1991).

Test [1] deals with T1, 12-lipoxygenase (Bos taurus, UniProt F1MFA8).
T1 construct: a bovine platelet-derived preparation was used as the 12-lipoxygenase source; from tissue; host or cells: bovine platelets
T1 sequence (F1MFA8 1-663): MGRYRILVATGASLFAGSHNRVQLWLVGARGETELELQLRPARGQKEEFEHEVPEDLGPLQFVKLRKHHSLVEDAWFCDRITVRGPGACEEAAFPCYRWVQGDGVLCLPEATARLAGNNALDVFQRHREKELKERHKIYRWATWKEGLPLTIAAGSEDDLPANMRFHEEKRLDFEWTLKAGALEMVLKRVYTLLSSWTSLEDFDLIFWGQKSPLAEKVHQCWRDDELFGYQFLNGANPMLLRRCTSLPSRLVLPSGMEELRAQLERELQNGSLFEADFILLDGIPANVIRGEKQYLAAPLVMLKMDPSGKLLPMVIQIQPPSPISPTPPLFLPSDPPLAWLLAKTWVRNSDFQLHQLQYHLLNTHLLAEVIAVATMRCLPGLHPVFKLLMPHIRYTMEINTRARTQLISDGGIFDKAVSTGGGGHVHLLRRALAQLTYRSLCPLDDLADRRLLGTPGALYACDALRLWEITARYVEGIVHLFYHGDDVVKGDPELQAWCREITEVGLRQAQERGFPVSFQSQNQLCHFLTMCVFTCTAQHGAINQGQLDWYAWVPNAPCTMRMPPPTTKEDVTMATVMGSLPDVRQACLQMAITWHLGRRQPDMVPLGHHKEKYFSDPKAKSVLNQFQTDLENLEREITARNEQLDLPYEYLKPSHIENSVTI
As to the kind of experiment: Platelet 12-lipoxygenase inhibiting activity (Test Example 2, [14C]-arachidonic acid, TLC). The following applies: bovine platelet-derived preparation; 20 μM [14C]-arachidonic acid; pH 7.4; 30° C., 10 min; TLC/scintillation; read-out: Inhibitory Activity IC50, 12-Lipoxygenase. The format is biochemical.

For another test, the system named is lipoxygenase. The settings on record: known compounds; cited from earlier work.
The target in test [2] is T2, 5-lipoxygenase (Rattus norvegicus, UniProt P12527).
T2 construct: rat basophilic leukemia cells (RBL-1, ATCC No. CRL 1378) were used as the 5-lipoxygenase source; endogenous in cells; host or cells: RBL-1 (rat basophilic leukemia, ATCC CRL 1378)
T2 sequence (P12527 1-673): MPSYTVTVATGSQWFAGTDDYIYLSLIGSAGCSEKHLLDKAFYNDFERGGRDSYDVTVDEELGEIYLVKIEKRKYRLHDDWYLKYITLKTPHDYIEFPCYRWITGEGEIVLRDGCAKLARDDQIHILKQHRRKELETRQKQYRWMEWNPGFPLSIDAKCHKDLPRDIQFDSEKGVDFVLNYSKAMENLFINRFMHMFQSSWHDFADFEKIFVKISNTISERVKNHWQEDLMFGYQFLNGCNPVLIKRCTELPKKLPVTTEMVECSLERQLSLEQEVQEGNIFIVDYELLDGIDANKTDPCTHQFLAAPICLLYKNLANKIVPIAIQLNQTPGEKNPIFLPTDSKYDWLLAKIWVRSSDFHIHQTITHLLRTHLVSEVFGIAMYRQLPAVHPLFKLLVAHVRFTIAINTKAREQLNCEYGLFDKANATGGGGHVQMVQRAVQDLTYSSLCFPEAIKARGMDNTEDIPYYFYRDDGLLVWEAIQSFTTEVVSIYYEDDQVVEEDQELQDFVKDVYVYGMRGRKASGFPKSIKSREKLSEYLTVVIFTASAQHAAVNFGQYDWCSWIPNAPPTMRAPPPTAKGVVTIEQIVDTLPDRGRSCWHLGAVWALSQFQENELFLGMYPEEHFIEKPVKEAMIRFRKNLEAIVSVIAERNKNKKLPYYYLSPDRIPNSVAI
The test is described as follows: 5-Lipoxygenase inhibiting activity (Test Example 2, [14C]-arachidonic acid, TLC). It counts as biochemical. The settings on record: RBL-1 cells as enzyme source; 27 μM [14C]-arachidonic acid; pH 7.4; 37° C., 5 min; TLC/scintillation; read-out: Inhibitory Activity IC50, 5-Lipoxygenase. The method, then: The compounds listed in Table 3 were tested for their lipoxygenase inhibiting activity by the following methods:
(a') 5-Lipoxygenase inhibiting activity
Essentially, the same method described in the above (a) was used. Thus, rat basophilic leukemia cells (RBL-1, ATCC No. CRL 1378) were used as the 5-lipoxygenase source. These cells were contacted with the test compound in 30 μl of 0.17 M Tris-hydrochloride buffer (pH 7.4) containing […] calcium chloride, 3.3 mM adenosine triphosphate and 1 mM glutathione at 37° C. for 5 minutes. Then, 25 μl of 27 μM [^14 C]-arachidonic acid was added and the enzymatic reaction was allowed to proceed at 37° C. for 5 minutes. To the reaction mixture was added 50 μl of ethyl acetate/methanol/0.2 M citric acid (30/4/1), and the whole mixture was stirred. The reaction product extracted into the ethyl acetate layer was separated by silica gel thin layer chromatography [Merck Art 5631: developing solvent; petroleum ether/ethyl ether/acetic acid (50/50/1)]. The site of the product [^14 C]-5-hydroxy-6,8,11,14-eicosatetraenoic acid was detected by autoradiography, the gel portion corresponding to the site was scraped off and assayed for ^14 C using a liquid scintillation counter, and the yield of the product was determined.

The conditions of test [3]: literature; cited from earlier work.
Test [4] deals with T1, 12-lipoxygenase. As to the kind of experiment: Platelet 12-lipoxygenase inhibiting activity (Test Example 1, HPLC determination of 12-HETE). The settings on record: bovine platelet-derived preparation; 60 μM arachidonic acid; pH 7.4; 30° C., 10 min; HPLC of 12-HETE; read-out: Inhibitory Activity IC50, 12-Lipoxygenase. The format is biochemical. The method, then: (§1) The compounds listed in Table 2 were tested in vitro for their lipoxygenase inhibiting activity in the following manner: a) Leukocyte 5-lipoxygenase inhibiting activity
The method of D.H. Nugtern et al. Biochem. Biophys. Acta, 380, 299 (1975) was modified. Thus, a bovine platelet-derived preparation was used as the 12-lipoxygenase source. This enzyme preparation and the test compound were brought into contact with each other in 60 μl of 0.17 M Tris-hydrochloride buffer (pH 7.4) at 30° C. for 5 minutes, 50 μl of 60 μM arachidonic acid was then added and the enzymatic reaction was allowed to proceed at 30° C. for 10 minutes. Thereafter, 200 μl of methanol and 13-hydroxylinolic acid (internal standard) were added and, after sufficient shaking, the mixture was allowed to stand at -20° C. for 30 minutes. The supernatant was collected by centrifugation (12,000 revolutions per minute, 10 minutes). This supernatant was evaporated to dryness under a nitrogen gas stream. To the residue was added 200 μl of 75% aqueous methanol and 100 μl of the resultant solution was subjected to high performance liquid chromatography for the determination of 12-HETE (12-hydroxyeicosapetraenoic acid). 12-HETE was assayed by ultraviolet absorption monitoring at 234 nm. The yield of 12-HETE was calculated from the peak area corrected in comparison with the peak of the internal standard.

The target of test [5] is T2, 5-lipoxygenase. As to the kind of experiment: Leukocyte 5-lipoxygenase inhibiting activity (Test Example 1, HPLC determination of 5-HETE). The format is biochemical. The following applies: RBL-1 cells as enzyme source; 60 μM arachidonic acid; pH 7.4; 37° C., 5 min; HPLC of 5-HETE; read-out: Inhibitory Activity IC50, 5-Lipoxygenase. On the procedure: as §1
The method of B.A. Jakschik et al. Biochem. Biophys. Res. Commun., 95, 103 (1980) was modified. Thus, rat basophilic leukemia cells (RBL-1, ATCC No. CRL 1378) were used as the 5-lipoxygenase source. These cells were brought into contact with the test compound in 60 μl of 0.17 M Tris-hydrochloride buffer (pH 7.4) containing […], 3.3 mM adenosine triphosphate and 1 mM glutathione at 37° C. for 5 minutes, then 50 μl of 60 μM arachidonic acid was added and the enzymatic reaction was allowed to proceed at 37° C. for 5 minutes. Thereafter, 200 μl of methanol and 13-hydroxylinolic acid (internal standard) were added. After sufficient shaking, the mixture was allowed to stand at -20° C. for 30 minutes and then centrifuged for 10 minutes (12,000 revolutions per minute) to collect the supernatant. The supernatant was evaporated to dryness under a nitrogen gas stream. To the residue was added 200 μl of 75% aqueous methanol and 100 μl of the resultant solution was subjected to high performance liquid chromatography for the determination of 5-HETE (5-hydroxyeicosatetraenoic acid). 5-HETE was assayed on the basis of the absorption at 234 nm as measured by ultraviolet absorption monitoring. The yield of 5-HETE was calculated from the peak area corrected in comparison with the peak of the internal standard. […] (b) Platelet 12-lipoxygenase inhibiting activity

Broadly, the IC50 is the concentration that inhibits the measured activity by half. On to `CC1=C(C)C(=O)C(CCCCC#CCCCC#CCO)=C(C)C1=O` [AA-861, 2-(12-hydroxy-dodeca-5,10-diynyl)-3,5,6-trimethyl-1,4-benzoquinone, reference compound], for which the half-maximal inhibitory concentration (IC50) turned out to be 450000 nM on 12-lipoxygenase [1] and 680 nM on 5-lipoxygenase [2]. In addition, the “lipoxygenase inhibiting activity (in words)” value in the test with lipoxygenase was “known to have lipoxygenase inhibiting activity”. Also, in test [3], the “pharmacological activities (in words)” value was “bronchial contraction suppressing, anti-inflammatory, anti-myocardiac infarction and other activities”.
Consider `Cl.NC1=NN(c2cccc(C(F)(F)F)c2)CC1` [BW-755C, 3-amino-1-(3-trifluoromethylphenyl)-2-pyrazoline hydrochloride], for which the IC50 on 12-lipoxygenase [1] was 8800 nM. In addition, in the test on lipoxygenase, the “lipoxygenase inhibiting activity (in words)” value is recorded as “known to have lipoxygenase inhibiting activity”. Moreover, in test [3], the “pharmacological activities (in words)” value is “anti-inflammatory and other activities”.
As to `CCCCCCCCCCCC(=O)NCCCCCN(O)C(=O)CCC(=O)OC` [Compound No. 2], the IC50 at 12-lipoxygenase [4] worked out at 3300 nM; at 5-lipoxygenase [5] it was 10 nM.
With `CCCCCCCCCCCC(=O)N(O)CCCCCNCCCC(=O)O` [Compound No. 6], the IC50 at 5-lipoxygenase [5] was found to be 560 nM.
For `CCCCCCCCCCCC(=O)N(O)CCCCCNCCCC(=O)OC` [Compound No. 7], the half-inhibitory concentration (IC50) at 5-lipoxygenase [5] was 52 nM.
As for `CCCCCCCCCCCC(=O)N(O)CCCCCNC(=O)CC(=O)OCC` [Compound No. 8], the values for the half-maximal inhibitory concentration (IC50) at 12-lipoxygenase [4] and on 5-lipoxygenase [5] were 12 nM and 25 nM, respectively.
For `CCCCCCCCCCCC(=O)N(O)CCCCCNC(=O)CC(=O)OC` [Compound No. 9], in that order: 11 nM and 54 nM.
On to `CCCCCCCCCCCC(=O)N(O)CCCNC(=O)CCC(=O)O` [Compound No. 10], for which the IC50 at 12-lipoxygenase [4] is 7000 nM; at 5-lipoxygenase [5], 270 nM.
As to `CCCCCCCCCCCC(=O)N(O)CCCNC(=O)CCC(=O)OC` [Compound No. 11], on 5-lipoxygenase [5], the 50% inhibitory concentration (IC50) turned out to be 12 nM.
For `CCCCCCCCCCCC(=O)N(O)CCCCCNC(=O)CCC(=O)O` [Compound No. 12], the IC50 on 12-lipoxygenase [1] is 35 nM; on 5-lipoxygenase [2], 1870 nM.
In the case of `CCCCCCCCCCCC(=O)N(O)CCCCCNC(=O)CCC(=O)OC` [Compound No. 13], the IC50 amounted to 14 nM at 12-lipoxygenase [1] and 55 nM on 5-lipoxygenase [2].
Taken in the same sequence, the figures for `CCCCCCCCCCCCCCCCCC(=O)N(O)CCCCCNC(=O)CCC(=O)OC` [compound 15] were 32000 nM and 800 nM.
For `CCCCCCCCCCCCCCCC(=O)N(O)CCCCCNC(=O)CCC(=O)OC` [compound 17], in that order: 1000 nM and 470 nM.
With `CCC(C)CCCCCCCCCCC(=O)N(O)CCCCCNC(=O)CCC(=O)OC` (stereo not shown) [compound 21], the values for the IC50 at 12-lipoxygenase [1] and at 5-lipoxygenase [2] were 310 nM and 360 nM, respectively.
As for `COC(=O)CCC(=O)NCCCCCN(O)C(=O)CCCCCCCCCCC(C)C` [compound 23], the results for the IC50 on 12-lipoxygenase [1] and on 5-lipoxygenase [2] were 56 nM and 300 nM, respectively.
As for `CCCCCCCCCCCCC(=O)N(O)CCCCCNC(=O)CCC(=O)OC` [compound 24], the IC50 on 12-lipoxygenase [1] was determined as 36 nM; at 5-lipoxygenase [2] it was 190 nM.
Take `COC(=O)CCC(=O)NCCCCCN(O)C(=O)CCCCCCCCC(C)C` [compound 27]: the IC50 at 12-lipoxygenase [1] was found to be 33 nM; on 5-lipoxygenase [2] it was 89 nM.
